Experimental data published in patent US20130303500A1, “COMPOUNDS AND METHODS FOR TREATING NEOPLASIA” (Medexis S.A., priority 2010, published 2013).

What was measured:
[1] = system: 7 different cell lines (lung, ovarian, prostate, CNS, breast, colon); assay: SRB assays across 7 cell lines; assay type: cell-based, human; conditions: for CC50 / GI50: Homo sapiens; for CC50: read-out: LC50 values; for GI50 / GI50 action in most cell lines: SRB; for GI50: average over cell lines; for viability and/or cell proliferation of cell lines: cell lines representative of lung, breast, CNS, prostate, ovarian, colon and renal neoplasias; for anti-cancer activity in SRB assays: multiple cell lines
Experimental: (§1) Sulforhodamine B (SRB) assays were performed according to standard National Cancer Institute Guidelines. Briefly, human tumor cells from different cancer panels were seeded into 96 well plates in […] (plating densities ranging from 5-40,000 cells/well depending on the doubling time of individual cell lines) in serum-containing media for twenty-four hours prior to the addition of the compounds to be assayed. After 24 hours, one plate of each cell line was fixed in situ with trichloroacetic acid (TCA). The fixed slides were used to determine the cell population for each cell line at the time of drug addition (Tz). Each compound to be tested was solubilized in dimethyl sulfoxide (DMSO) and the desired concentration was then added to the medium and diluted serially 1:10 to provide a total of five or ten drug concentrations plus control (in a final volume of 200 μL). The starting dose before any dilution was 100 uM for all compounds.
(§2) Following drug addition, each culture was incubated for forty-eight hours. The assay was terminated with the addition of cold TCA. The supernatant was discarded, and the plates were washed with tap water and air dried. SRB solution was then added to each well. After staining, the bound stain was solubilized and the absorbance was read on an automated plate reader at a wavelength of 515 nm.
(§3) Using the absorbance measurements [time zero, (Tz), control growth, (C), and test growth in the presence of drug at the ten concentration levels (Ti)], the percentage growth was calculated at each of the drug concentrations levels. Percentage growth inhibition was calculated as:
(§4) [(Ti−Tz)/(C−Tz)]×100 for concentrations for which Ti>/=Tz
(§5) [(Ti−Tz)/Tz]×100 for concentrations for which Ti<Tz.
(§6) Three dose response parameters were calculated for each experimental agent. Growth inhibition of 50% (GI50) was calculated from [(Ti−Tz)/(C−Tz)]×100=50, which was the drug concentration resulting in a 50% reduction in the net protein increase (as measured by SRB staining) in control cells during the drug. The drug concentration resulting in total growth inhibition (TGI) was calculated from Ti=Tz. The LC50 (concentration of drug resulting in a 50% reduction in the measured protein at the end of the drug treatment as compared to that at the beginning) indicating a net loss of cells following treatment was calculated from [(Ti−Tz)/Tz]×100=−50.
(§7) Values were calculated for each of these three parameters when the level of activity was reached; however, if the effect was not reached or was exceeded, the value for that parameter was expressed as greater or less than the maximum or minimum concentration tested.
SRB provides a colorimetric measure of a compound's anti-cancer activity. SRB assays were performed with compounds of the invention in 7 different cell lines, which represent six different tumor panels (lung, ovarian, prostate, CNS, breast, colon).

SF268 (CNS) cells = assay: Sulforhodamine B (SRB) assay, SF268; assay type: cell-based; conditions: Homo sapiens; for CC50: SF-268, 48 h, read-out: LC50; for GI50 / IC (TGI): SF-268, SF268 CNS, SRB, 48 h
Experimental: as §1, §2, §3, §4, §5, §6, §7

[2] = system: NCI-ADR-RES (Ovarian) cells; assay: Sulforhodamine B (SRB) assay, NCI-ADR-RES (multidrug resistant); assay type: cell-based, human; conditions: 48 h; for CC50 / GI50: Homo sapiens; for CC50: NCI/ADR-RES, read-out: LC50; for GI50 / TGI: NCI-ADR-RES Ovarian, SRB
Experimental: as §1, §2, §3, §4, §5, §6, §7

H460 (Lung) cells = assay: Sulforhodamine B (SRB) assay, H460; assay type: cell-based, human; conditions: for TGI / GI50: H460 Lung, SRB, 48 h; for CC50 / GI50: Homo sapiens; for CC50: NCI-H460, 48 h, read-out: LC50; for GI50: NCI-H460
Experimental: as §1, §2, §3, §4, §5, §6, §7

A549 (Lung) cells = assay: Sulforhodamine B (SRB) assay, A549; assay type: cell-based; conditions: Homo sapiens; for CC50: A549, 48 h, read-out: LC50; for GI50 / IC (TGI): A549 Lung, SRB, 48 h
Experimental: as §1, §2, §3, §4, §5, §6, §7

DU145 (Prostate) cells = assay: MTT cell proliferation/viability assay, DU145; assay type: cell-based; conditions: Homo sapiens, DU-145, 72 h
Experimental: Cell proliferation/viability was assessed by the MTT [3-(4,5-dimethylthiazol-2-yl)-2,5-diphenyltetrazolium bromide] assay, which is commercially available (Sigma, St. Louis, Mo.). Cells were cultured in 96-well plates for twenty-four hours (7-10.000 cells/well) and incubated with various concentrations of the different compounds—as indicated in the Figures—in serum-containing medium (or left untreated) for seventy-two hours. At the end of incubation, the medium was aspirated and MTT dissolved in RPMI 1640 w/o phenol red was added to each well to a final concentration of 0.25 mg/ml. After four hours incubation in the dark (37° C., 5% CO2) the supernatant was discarded. The converted dye (blue formazan crystals) was solubilized by adding 200 μl dimethylsulfoxide to each well. Absorbance was measured at 550 nm with reference at 655 nm using a spectrophotometer with the respective filters. All assays were performed in triplicate.
The effect of the different compounds on the proliferation and viability of two cancer cell lines (DU145/prostate and CAKI/renal) was tested through quantitative (4,5-dimethylthiazol-2-yl)-2,5-diphenyltetrazolium bromide (MTT) assays.

PC3 (Prostate) cells = assay: Sulforhodamine B (SRB) assay, PC3; assay type: cell-based; conditions: Homo sapiens, Prostate cell, 48 h; for CC50: read-out: LC50; for GI50 / IC (TGI): PC3 Prostate, SRB
Experimental: as §1, §2, §3, §4, §5, §6, §7

HCT116 (Colon) cells = assay: Sulforhodamine B (SRB) assay, HCT116; assay type: cell-based, human; conditions: for TGI / GI50: HCT116 Colon, SRB, 48 h; for CC50 / GI50: Homo sapiens; for CC50: HCT-116, 48 h, read-out: LC50; for GI50: HCT-116
Experimental: as §1, §2, §3, §4, §5, §6, §7

MCF7 (Breast) cells = assay: Sulforhodamine B (SRB) assay, MCF7; assay type: cell-based, human; conditions: for CC50 / GI50: Homo sapiens; for CC50: MCF7, 48 h, read-out: LC50; for GI50 / TGI: MCF7 Breast, SRB, 48 h
Experimental: as §1, §2, §3, §4, §5, §6, §7

[3] = target: Na+/K+-ATPase (Adenosine 5′-Triphosphatase isolated from porcine cerebral cortex); assay: Na+/K+-ATPase inhibitory activity, colorimetric Adenosine 5′-Triphosphatase Enzymatic Assay (Sigma); assay type: biochemical; conditions: enzyme from porcine cerebral cortex, 0.5 units/ml
Experimental: The compound inhibitory effect on ATPase activity was assessed in vitro using the colorimetric Adenosine 5′-Triphosphatase Enzymatic Assay of Sigma (St. Louis, Mo.) according to the manufacturer's instructions. This assay utilizes Adenosine 5′-Triphosphatase isolated from porcine cerebral cortex. Each reaction was performed in a final volume of […] using 0.5 units/ml enzyme in the presence of the different inhibitors. […] IC50 values were determined using the Origin® program software (OriginLab, Northampton, Mass.).

| Compound | viability and/or cell proliferation of cell lines [1] | CC50 (SF268 (CNS) cells) [µM] | GI50 (SF268 (CNS) cells) [µM] | IC (TGI) (SF268 (CNS) cells) [µM] | CC50 [2] [µM] | GI50 [2] [µM] | TGI (H460 (Lung) cells) [µM] | CC50 (H460 (Lung) cells) [µM] | GI50 (H460 (Lung) cells) [µM] | CC50 (A549 (Lung) cells) [µM] | GI50 (A549 (Lung) cells) [µM] | IC (TGI) (A549 (Lung) cells) [µM] | IC50 (DU145 (Prostate) cells) [µM] | CC50 (PC3 (Prostate) cells) [µM] | GI50 (PC3 (Prostate) cells) [µM] | IC (TGI) (PC3 (Prostate) cells) [µM] | CC50 (HCT116 (Colon) cells) [µM] | CC50 (MCF7 (Breast) cells) [µM] | GI50 (MCF7 (Breast) cells) [µM] | IC50 [3] [µM] | also measured |
| --- | --- | --- | --- | --- | --- | --- | --- | --- | --- | --- | --- | --- | --- | --- | --- | --- | --- | --- | --- | --- | --- |
| CON=C1CC2C(CC[C@]3(C)C(=O)C(F)CC23)[C@@]2(C)CCC(=NOC3CCNC3)CC12 (stereo in doubt) [Compound 8, (5S,10R,13S,16R)-16a-fluoro-6-(methoxyimino)-10,13-dimethyl-3-((R)-pyrrolidin-3-yloxyimino)-tetradecahydro-2H-cyclopenta[a]phenanthren-17(14H)-one] | reduced the viability and/or cell proliferation | 0.085 | 0.004 | 0.038 | 0.508 | 0.014 | 0.027 | 0.074 | 0.004 | 0.075 | 0.006 | 0.029 | 0.223 | 0.919 | 0.009 | 0.199 | 1.04 | 6.96 | 0.024 | 0.311 | CC50 [1]: < 1 µM; GI50 [1]: < 1 µM; anti-cancer activity in SRB assays [1]: best activity; TGI [2]: 0.071 µM; TGI (HCT116 (Colon) cells): 0.236 µM; GI50 (HCT116 (Colon) cells): 0.035 µM; TGI (MCF7 (Breast) cells): 0.327 µM |
| CON=C1CC2C(CC[C@]3(C)C(=O)CCC23)[C@@]2(CO)CCC(=NOC3CCNC3)CC12 (stereo in doubt) [Compound 30, (5S,10S,13S)-10-(hydroxymethyl)-6-methoxy-imino-13-methyl-3-((S)-pyrrolidin-3-yloxyimino)-tetradecahydro-14H-cyclopenta[a]phenanthrene-17-one] | – | 78.4 | 5.62 | 25800 | – | – | – | – | – | 29.6 | 4.07 | – | 6.7 | 75.2 | 7.71 | 36700 | – | – | – | – | – |
| C=C1CC2C(CC[C@]3(C)C(=O)C(F)CC23)[C@@]2(C)CCC(=NOC3CCNC3)CC12 (stereo partly drawn) [Compound 6, (5S,10R,13S,16R)-16a-fluoro-6-methylene-10,13-dimethyl-3-((R)-pyrrolidin-3-yloxyimino)-tetradecahydro-2H-cyclopenta[a]phenanthren-17(14H)-one] | reduced the viability and/or cell proliferation | 0.071 | < 0.001 | 0.02 | 0.079 | 0.018 | 0.008 | 0.053 | 0.003 | 0.053 | 0.005 | 0.008 | – | 1.24 | 0.003 | 0.055 | 0.728 | 1.28 | 0.009 | – | CC50 [1]: < 1 µM; GI50 [1]: < 1 µM; anti-cancer activity in SRB assays [1]: best activity; TGI [2]: 0.049 µM; TGI (HCT116 (Colon) cells): 0.088 µM; GI50 (HCT116 (Colon) cells): 0.009 µM; TGI (MCF7 (Breast) cells): 0.082 µM |
| C[C@]12CCC(=NO[C@H]3CCNC3)C(c3ccccc3)C1CCC1C2CC[C@]2(C)C(=O)CCC12 (stereo partly drawn) [Compound 21, (10R,13S)-10,13-dimethyl-4-phenyl-3-((S)-pyrrolidin-3-yloxyimino)-tetradecahydro-2H-cyclopenta[a]phenanthren-17(14H)-one] | reduced the viability and/or cell proliferation | 57.2 | 4.16 | 8450 | – | – | – | – | – | 45.3 | 4.41 | – | 13.5 | 49.1 | 4.46 | – | – | – | – | 19.3 | GI50 action in most cell lines [1]: single-digit micromolar |
| C[C@]12CCC3C(CC[C@H]4CC(=NO[C@H]5CCNC5)CC[C@]34CO)C1CCC2=O (stereo partly drawn) [Compound 25, (5S,10R,13S)-10-(hydroxymethyl)-13-methyl-3-((S)-pyrrolidin-3-yloxyimino)-tetradecahydro-2H-cyclopenta[a]phenanthren-17(14H)-one] | reduced the viability and/or cell proliferation | 85.4 | 5.74 | 31300 | – | – | – | > 100 | 4.37 | > 100 | 4.81 | 9410 | 15 | 9.44 | 3.89 | – | – | > 100 | 6.17 | 0.525 | GI50 action in most cell lines [1]: single-digit micromolar |
| C[C@]12CCC3C(CC(=O)[C@H]4CC(=NO[C@H]5CCNC5)CC[C@]34CO)C1CCC2=O (stereo partly drawn) [Compound 28, (5S,10S,13S)-10-(hydroxymethyl)-13-methyl-3-((S)-pyrrolidin-3-yloxyimino)-tetradecahydro-14H-cyclopenta[a]phenanthrene-6,17-dione] | reduced the viability and/or cell proliferation | > 100 | 63.8 | > 100 | – | – | >100 | > 100 | 57.6 | > 100 | 62.6 | > 100 | 87 | 157 | 53.5 | – | – | > 100 | 76.5 | 12.9 | TGI (MCF7 (Breast) cells): >100 µM |
| CC1CC2C(CC[C@]3(C)C(=O)C(F)CC23)[C@@]2(C)CCC(=NOC3CCNC3)C=C12 (stereo partly drawn) [Compound 86, 16-Fluoro-6,10,13-trimethyl-1,6,7,8,9,10,11,12,13,14,15,16-dodecahydro-2H-cyclopenta[a]phenanthrene-3,17-dione 3-(O-pyrrolidin-3-yl-oxime)] | reduced the viability and/or cell proliferation | 8.11 | 1.86 | 4980 | 48.1 | 4.13 | – | 8.07 | 2.57 | 8.05 | 2.45 | 5250 | – | 72.4 | 5.37 | 9780 | 58.8 | 59.3 | 4.35 | – | GI50 (HCT116 (Colon) cells): 3.71 µM |
